For three compounds, IC50 results are on record in patent US11667673B2, “Therapeutically active compounds and their methods of use” (Servier Pharmaceuticals LLC, priority 2013, dated 2023).

Some results are limits rather than exact numbers.

In this experiment the test system is U87MG cells. As to the kind of experiment: Cellular assay for IDH1m inhibitors: inhibition of 2-HG production in U87MG cells (LC-MS). The class given is cell-based. The method, then:
Cells (HT1080 or U87MG) are grown in T125 flasks in DMEM containing 10% FBS, 1× penicillin/streptomycin and 500 ug/mL G418 (present in U87MG cells only). They are harvested by trypsin and seeded into 96 well white bottom plates at a density of 5000 cell/well in 100 ul/well in DMEM with 10% FBS. […] Cells are incubated overnight at 37° C. in 5% CO2. The next day test compounds are made up at 2× the final concentration and 100 ul are added to each cell well. The final concentration of DMSO is 0.2% and the DMSO control wells are plated in row G. The plates are then placed in the incubator for 48 hours. […] The cell plate is placed back in the incubator for another 24 hours. At 72 hours post compound addition, 10 mL/plate of Promega Cell Titer Glo reagent is thawed and mixed. The cell plate is removed from the incubator and allowed to equilibrate to room temperature. Then 100 ul of Promega Cell Titer Glo reagent is added to each well of media. The cell plate is then placed on an orbital shaker for 10 minutes and then allowed to sit at room temperature for 20 minutes. The plate is then read for luminescence with an integration time of 500 ms.

As usually defined, the IC50 is the concentration at which inhibition is half-maximal. For the compound `O=C(NC1CCC(F)(F)CC1)[C@H](c1ccccc1Cl)N(C(=O)[C@@H]1CCC(=O)N1c1ncccn1)c1cccc(F)c1` [compound 4, (S)—N—((S)-1-(2-chlorophenyl)-2-((4,4-difluorocyclohexyl)amino)-2-oxoethyl)-N-(3-fluoro-phenyl)-5-oxo-1-(pyrimidin-2-yl)pyrrolidine-2-carboxamide], the IC50 (Homo sapiens, U-87 MG, 48 h) is below 100 nM.
Same read-out and setting: as for `CN1C[C@@H](C(=O)N(c2cccc(F)c2)[C@H](C(=O)NC2CC(F)(F)C2)c2ccccc2Cl)N(c2cc(C#N)ccn2)C1=O` [compound 79], the figure is below 100 nM.
Turning to “(S)—N—((S)-1-(2-Chlorophenyl)-2-(3,3-difluorocyclobutylamino)-2-oxoethyl)-1-(3-cyanophenyl)-N-(1H-indazol-7-yl)-5-oxopyrrolidine-2-carboxamide [compound 186]”, where the note is “inhibition of 2-HG production, U87MG cells, 48 hours”, the IC50 was below 100 nM.
